In PMC3005334 (Cell, 2010):

How the values were obtained:
103 protein kinases = assay: Affinity purification LC-MS profiling of the panel of yeast protein kinases; assay type: binding, Saccharomyces cerevisiae; conditions: of 103 kinases analyzed
Hmg1 = target: T1, Hmg1 (Saccharomyces cerevisiae, UniProt P12683); assay type: binding; conditions: probably low level of protein in the preparation
T1 sequence (P12683 1-1054): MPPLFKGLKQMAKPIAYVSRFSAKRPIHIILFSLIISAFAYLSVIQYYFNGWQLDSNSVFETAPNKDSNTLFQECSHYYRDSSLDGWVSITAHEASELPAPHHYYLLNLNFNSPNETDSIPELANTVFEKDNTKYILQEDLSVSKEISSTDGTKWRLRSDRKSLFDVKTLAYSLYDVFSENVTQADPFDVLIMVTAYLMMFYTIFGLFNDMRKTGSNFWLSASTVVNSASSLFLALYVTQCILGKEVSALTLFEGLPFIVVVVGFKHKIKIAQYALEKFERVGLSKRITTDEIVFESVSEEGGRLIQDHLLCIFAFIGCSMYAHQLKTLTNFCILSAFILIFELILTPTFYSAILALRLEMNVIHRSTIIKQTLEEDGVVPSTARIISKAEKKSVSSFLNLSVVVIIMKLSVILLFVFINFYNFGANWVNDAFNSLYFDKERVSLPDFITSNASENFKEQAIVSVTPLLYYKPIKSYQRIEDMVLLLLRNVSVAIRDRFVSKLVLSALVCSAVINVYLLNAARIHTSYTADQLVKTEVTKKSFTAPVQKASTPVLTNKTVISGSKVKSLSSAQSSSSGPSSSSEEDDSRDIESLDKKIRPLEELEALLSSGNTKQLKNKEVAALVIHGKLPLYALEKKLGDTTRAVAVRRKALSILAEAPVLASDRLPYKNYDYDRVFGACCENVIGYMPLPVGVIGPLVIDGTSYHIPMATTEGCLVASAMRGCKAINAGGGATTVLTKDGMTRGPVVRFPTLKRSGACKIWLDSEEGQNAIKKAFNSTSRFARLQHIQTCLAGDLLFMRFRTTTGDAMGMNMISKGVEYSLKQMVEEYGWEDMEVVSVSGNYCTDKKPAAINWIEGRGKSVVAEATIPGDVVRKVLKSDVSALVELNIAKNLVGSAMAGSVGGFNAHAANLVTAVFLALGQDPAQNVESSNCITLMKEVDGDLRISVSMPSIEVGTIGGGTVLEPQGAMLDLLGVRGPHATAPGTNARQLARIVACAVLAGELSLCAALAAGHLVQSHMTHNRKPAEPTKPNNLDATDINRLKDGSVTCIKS

Ypk1, Hal5, and Rck2 = assay: In vitro small metabolite-protein binding assay; parameters: species or system Saccharomyces cerevisiae; conditions: fixed amount of protein; indicates specific binding
[1] = system: 21 ergosterol biosynthetic proteins (Erg proteins); conditions: of 21 Erg enzymes, above the control
[2] = system: Atg1, Psk2 and denatured Ypk1; assay: In vitro small metabolite-protein binding assay; parameters: species or system Saccharomyces cerevisiae; conditions: denatured protein or control proteins; indicates non-specific adsorption

Question: How did the “number of protein kinases associated with the metabolite” value (103 protein kinases) turn out when `CC(C)[C@@H](C)/C=C/[C@@H](C)[C@H]1CC[C@H]2C3=CC=C4C[C@@H](O)CC[C@]4(C)[C@H]3CC[C@]12C` [ergosterol] was run?
Answer: 15

Question: And the “detection with Hmg1” value (Hmg1)?
Answer: not detected

Question: What about the “shape of binding curve over increasing free ergosterol” value (Ypk1, Hal5, and Rck2) of the same compound?
Answer: saturable curve

Question: And the “number of Erg proteins the metabolite co-purified with” value [1]?
Answer: 5

Question: What about the “shape of binding curve over increasing free ergosterol” value [2] of the same compound?
Answer: close to linear
